Experimental data from the supplement of paper PMC10307832.

The cell lines below were run with COC1=C(C=C(C=C1)C2=CC3=NC=CN3C(=N2)NC4=C(C=CC=N4)C(=O)N)OC [BAY61-3606] + Cc1nc(NC(=O)N2CCC[C@H]2C(N)=O)sc1-c1ccnc(C(C)(C)C(F)(F)F)c1 [Alpelisib] (partner 2 µM) (assay: relative viability (nuclei count vs DMSO), 5 days (fraction); higher = more cells survive). Settings: first compound 2 µM.
Summary of the method: (§1)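 One day after seeding in 1536-well plates, lung cancer cell lines were dosed by pin tool. Dosing was either single-drug or a fixed anchor-drug dose plus five library-drug doses (not always all listed) in √10 steps. After 5 days, nuclei were stained in one fix-and-stain step and counted on 4× images, and relative viability is the nuclei count of treated wells over that of vehicle wells, given as the median of duplicate plates.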

In order of falling relative viability:
1. ABC-1  1.06
2. NCI-H1563  0.683
3. NCI-H2170  0.512
4. HCC-366  0.212

These cell lines were tested with COc1cccc2c1C(=O)c1c(O)c3c(c(O)c1C2=O)C[C@@](O)(C(=O)CO)C[C@@H]3O[C@H]1C[C@H](N)[C@H](O)[C@H](C)O1 [Doxorubicin] + CC(=O)Nc1cccc(-n2c(=O)n(C3CC3)c(=O)c3c(Nc4ccc(I)cc4F)n(C)c(=O)c(C)c32)c1 [Trametinib] (partner 0.02 µM) in the same assay as above. Settings: first compound 0.001 µM.
Summary of the method: as §1

In order of falling relative viability:
1. HCC-44  0.987
2. ChaGo-K-1  0.984
3. NCI-H2170  0.98
4. LC-2-ad  0.949
5. NCI-H2342  0.901
6. NCI-H1651  0.82
7. EMC-BAC-2  0.807
8. LK-2  0.798
9. NCI-H596  0.733
10. HCC-78  0.723
11. NCI-H522  0.706
12. NCI-H1734  0.689
13. RERF-LC-KJ  0.659
14. NCI-H661  0.613
15. NCI-H2126  0.6
16. NCI-H1650  0.56
17. COR-L23  0.54
18. NCI-H1648  0.474
19. SW 1573  0.463
20. COR-L 105  0.452
21. NCI-H727  0.401
22. SK-LU-1  0.375
23. HCC-366  0.334
24. NCI-H2009  0.294
25. LCLC-97TM1  0.193
26. NCI-H2228  0.178
27. NCI-H2087  0.17

Same assay, conditions: first compound 0.003162 µM

In order of rising relative viability:
1. NCI-H2087  0.201
2. LCLC-97TM1  0.219
3. NCI-H2009  0.287
4. HCC-366  0.363
5. NCI-H727  0.382
6. NCI-H1793  0.4
7. NCI-H1648  0.429
8. COR-L 105  0.483
9. COR-L23  0.526
10. SK-LU-1  0.528
11. NCI-H1650  0.532
12. NCI-H2228  0.533
13. NCI-H2126  0.572
14. SW 1573  0.589
15. NCI-H661  0.604
16. H3255  0.62
17. EMC-BAC-2  0.633
18. NCI-H1734  0.724
19. NCI-H2342  0.729
20. NCI-H522  0.79
21. NCI-H1651  0.843
22. HCC-78  0.85
23. ChaGo-K-1  0.858
24. LC-2-ad  0.888
25. NCI-H596  0.896
26. LK-2  0.936
27. NCI-H2170  0.953
28. SW 900  1.01
29. RERF-LC-KJ  1.02
30. HCC-44  1.11

Same assay, conditions: first compound 0.01 µM

In order of falling relative viability:
1. HCC-44  1.05
2. NCI-H2342  0.954
3. LC-2-ad  0.924
4. NCI-H2170  0.887
5. NCI-H1651  0.817
6. NCI-H522  0.76
7. SW 900  0.75
8. HCC-78  0.735
9. RERF-LC-KJ  0.696
10. NCI-H596  0.661
11. ChaGo-K-1  0.661
12. NCI-H1734  0.641
13. H3255  0.633
14. LK-2  0.598
15. EMC-BAC-2  0.576
16. NCI-H2126  0.561
17. NCI-H1648  0.555
18. COR-L23  0.545
19. NCI-H661  0.488
20. SK-LU-1  0.445
21. NCI-H1650  0.433
22. COR-L 105  0.423
23. NCI-H2228  0.411
24. NCI-H1793  0.373
25. HCC-366  0.353
26. NCI-H2009  0.268
27. SW 1573  0.187
28. NCI-H2087  0.158
29. LCLC-97TM1  0.15

Same assay, conditions: first compound 0.03162 µM

In order of rising relative viability:
1. SW 1573  0.102
2. NCI-H2009  0.171
3. NCI-H2087  0.172
4. LCLC-97TM1  0.199
5. NCI-H1650  0.218
6. HCC-366  0.227
7. COR-L23  0.254
8. EMC-BAC-2  0.297
9. NCI-H2228  0.356
10. SK-LU-1  0.361
11. NCI-H727  0.397
12. NCI-H1793  0.4
13. NCI-H661  0.401
14. COR-L 105  0.423
15. NCI-H1648  0.492
16. RERF-LC-KJ  0.514
17. H3255  0.518
18. NCI-H2126  0.526
19. LK-2  0.578
20. NCI-H1734  0.611
21. SW 900  0.623
22. NCI-H596  0.659
23. HCC-78  0.668
24. NCI-H2342  0.685
25. NCI-H1651  0.707
26. NCI-H522  0.708
27. NCI-H2170  0.756
28. LC-2-ad  0.924
29. ChaGo-K-1  0.926
30. HCC-44  1.05

Same assay, conditions: first compound 0.1 µM

In order of falling relative viability:
1. HCC-44  1.07
2. SW 900  1.03
3. NCI-H2170  0.959
4. LC-2-ad  0.895
5. ChaGo-K-1  0.86
6. NCI-H1651  0.796
7. NCI-H522  0.777
8. NCI-H2342  0.724
9. LK-2  0.699
10. NCI-H596  0.671
11. HCC-78  0.66
12. NCI-H1734  0.634
13. NCI-H2126  0.601
14. H3255  0.591
15. NCI-H1648  0.541
16. RERF-LC-KJ  0.513
17. NCI-H1793  0.4
18. NCI-H661  0.388
19. NCI-H727  0.382
20. COR-L 105  0.377
21. EMC-BAC-2  0.36
22. HCC-366  0.325
23. SK-LU-1  0.282
24. LCLC-97TM1  0.209
25. NCI-H2087  0.166
26. NCI-H2228  0.165
27. NCI-H2009  0.153
28. COR-L23  0.149
29. NCI-H1650  0.144
30. SW 1573  0.067

Each cell line was assayed with COc1cccc2c1C(=O)c1c(O)c3c(c(O)c1C2=O)C[C@@](O)(C(=O)CO)C[C@@H]3O[C@H]1C[C@H](N)[C@H](O)[C@H](C)O1 [Doxorubicin] + C[C@]1(O)C[C@@H](c2nc(-c3ccc4ccc(-c5ccccc5)nc4c3)c3c(N)nccn32)C1 [Linsitinib] (partner 1 µM) in the same assay as above. Settings: first compound 0.001 µM.
Summary of the method: as §1

In order of falling relative viability:
1. NCI-H2009  1.16
2. SK-LU-1  1.1
3. NCI-H1563  1.07
4. COR-L 105  1.05
5. NCI-H596  1.01
6. NCI-H1299  0.949
7. NCI-H1734  0.945
8. Calu-6  0.944
9. H3255  0.906
10. COR-L23  0.881
11. LC-2-ad  0.879
12. NCI-H1651  0.838
13. EBC-1  0.826
14. NCI-H2228  0.825
15. RERF-LC-KJ  0.816
16. EMC-BAC-2  0.797
17. NCI-H2087  0.789
18. ABC-1  0.787
19. NCI-H2126  0.704
20. HCC-44  0.686
21. SW 1573  0.669
22. NCI-H661  0.641
23. HCC-78  0.539
24. LK-2  0.524
25. IA-LM  0.519
26. NCI-H1703  0.481
27. NCI-H727  0.275
28. LCLC-97TM1  0.205

Same assay, conditions: first compound 0.003162 µM

In order of rising relative viability:
1. LCLC-97TM1  0.185
2. NCI-H727  0.323
3. HCC-366  0.392
4. HCC-78  0.454
5. A549  0.609
6. NCI-H2228  0.615
7. NCI-H661  0.636
8. HCC-44  0.667
9. NCI-H1703  0.676
10. IA-LM  0.706
11. ABC-1  0.727
12. LK-2  0.742
13. NCI-H2126  0.748
14. LC-2-ad  0.803
15. NCI-H1793  0.813
16. SW 1573  0.831
17. EBC-1  0.839
18. RERF-LC-KJ  0.858
19. EMC-BAC-2  0.864
20. NCI-H2087  0.912
21. NCI-H1734  0.922
22. NCI-H1563  0.935
23. NCI-H1299  0.942
24. NCI-H1651  0.944
25. Calu-6  0.972
26. COR-L 105  1.04
27. H3255  1.07
28. COR-L23  1.08
29. NCI-H596  1.12
30. NCI-H2009  1.15
31. SK-LU-1  1.23

Same assay, conditions: first compound 0.01 µM

In order of falling relative viability:
1. NCI-H2009  1.28
2. NCI-H2087  1.14
3. NCI-H596  1.09
4. NCI-H1299  1.03
5. EBC-1  0.983
6. COR-L 105  0.955
7. H3255  0.908
8. COR-L23  0.908
9. LC-2-ad  0.902
10. NCI-H1563  0.898
11. SK-LU-1  0.891
12. RERF-LC-KJ  0.873
13. SW 1573  0.858
14. NCI-H1793  0.848
15. EMC-BAC-2  0.84
16. NCI-H1651  0.831
17. NCI-H1734  0.826
18. Calu-6  0.814
19. ABC-1  0.805
20. NCI-H2126  0.739
21. HCC-366  0.706
22. NCI-H1703  0.695
23. NCI-H2228  0.634
24. HCC-44  0.621
25. IA-LM  0.575
26. NCI-H661  0.551
27. A549  0.502
28. HCC-78  0.493
29. LK-2  0.409
30. NCI-H727  0.304
31. LCLC-97TM1  0.177

Same assay, conditions: first compound 0.03162 µM

In order of falling relative viability:
1. NCI-H596  1.01
2. NCI-H2009  0.953
3. RERF-LC-KJ  0.943
4. NCI-H1299  0.943
5. H3255  0.9
6. NCI-H2087  0.892
7. EMC-BAC-2  0.854
8. LC-2-ad  0.763
9. NCI-H1734  0.731
10. EBC-1  0.722
11. NCI-H2126  0.712
12. HCC-44  0.69
13. NCI-H1703  0.64
14. NCI-H1563  0.634
15. Calu-6  0.627
16. SW 1573  0.586
17. NCI-H1793  0.579
18. IA-LM  0.573
19. COR-L 105  0.557
20. A549  0.52
21. HCC-366  0.52
22. HCC-78  0.491
23. NCI-H661  0.484
24. LK-2  0.483
25. SK-LU-1  0.435
26. ABC-1  0.435
27. NCI-H1651  0.401
28. COR-L23  0.331
29. NCI-H727  0.251
30. NCI-H2228  0.178
31. LCLC-97TM1  0.151

Same assay, conditions: first compound 0.1 µM

In order of rising relative viability:
1. LCLC-97TM1  0.159
2. COR-L23  0.18
3. NCI-H1651  0.292
4. NCI-H2228  0.311
5. ABC-1  0.337
6. SK-LU-1  0.43
7. COR-L 105  0.433
8. NCI-H727  0.455
9. HCC-78  0.47
10. NCI-H1703  0.474
11. HCC-366  0.512
12. SW 1573  0.529
13. NCI-H661  0.547
14. NCI-H1563  0.587
15. LK-2  0.627
16. NCI-H2009  0.639
17. A549  0.646
18. Calu-6  0.702
19. NCI-H2126  0.718
20. IA-LM  0.74
21. HCC-44  0.753
22. EMC-BAC-2  0.776
23. LC-2-ad  0.791
24. NCI-H1734  0.871
25. RERF-LC-KJ  0.887
26. NCI-H1793  0.911
27. H3255  0.938
28. NCI-H2087  0.98
29. EBC-1  0.985
30. NCI-H596  0.992
31. NCI-H1299  0.999
